Measured values reported in US5565486A, “Sesquiterpenes, their preparation and their use as inhibitors acting on the gaba-benzodiazepine receptor” (Xenova Limited, priority 1992, dated 1996).
Each block holds one compound with its values, some of them ahead of it.

Legend:
[1] = Solubility in organic solvents; type: physicochemical; settings: solvents in which soluble
benzodiazepine receptor = assay: Benzodiazepine-receptor binding assay ([3H]-flunitrazepam displacement, ox cerebral cortex synaptosomal preparation); settings: for IC50: [3H]-flunitrazepam 1 nM, pH 7.4
Procedure: The present compounds have shown activity in a benzodiazepine-receptor binding assay which uses a tritiated ligand specific for the receptor present on the purified GABA-Bz-Cl^- ionophore receptor complex. The details of the assay are set out in Example 5 which follows.
The receptor extract was a crude synaptosomal preparation isolated from ox cerebral cortex by the method of Lang et al (FEBS Lett., 104 149-153, 1979). Receptor binding was determined using a modification described by O'Beirne and Williams (Eur. J. Biochem, 175 413-421, 1988) of the method of Braestrup and Squires (PNAS 74 3805-3809, 1977). The receptor preparation was incubated in 50 mM Tris/Cl, pH 7.4, with compound A and [^3 H]-flunitrazepam (agonist) at a final concentration of 1 nM. Bound radioligand was harvested on to glass fibre filters and measured by liquid scintillation counting. Non-specific binding was determined by displacement of ligand with Diazepam (1 μM).
Binding data were fitted to one or two site models by weighted non-linear regression analysis using the computer programs `LIGAND` (Munson and Rodbard: Analytic Biochem 107 220-239, 1980) and `EBDA` (McPherson-Computer Prog. in Biomed. 7 107-114, 1983).
The method described above was repeated using each of compounds B and C described in Examples 3 and 4 respectively, and also using compound D, which is the sodium salt of compound A.
IC50 values were also determined for compounds A', E and F described in Examples 5 to 7 respectively.

Solubility [1]: methanol, ethyl acetate
IC50 (benzodiazepine receptor): 500 nM
% Inhibition (benzodiazepine receptor; concentration 4.8 × 10^-5 M): 101%
% Inhibition (benzodiazepine receptor; concentration 4.8 × 10^-6 M): 88%
% Inhibition (benzodiazepine receptor; concentration 4.8 × 10^-7 M): 52%
% Inhibition (benzodiazepine receptor; concentration 4.8 × 10^-8 M): 37%
% Inhibition (benzodiazepine receptor; concentration 4.8 × 10^-9 M): 22%
% Inhibition (benzodiazepine receptor; concentration 9.5 × 10^-5 M): 104%
% Inhibition (benzodiazepine receptor; concentration 9.5 × 10^-6 M): 93%
% Inhibition (benzodiazepine receptor; concentration 9.5 × 10^-7 M): 65%
% Inhibition (benzodiazepine receptor; concentration 9.5 × 10^-8 M): 42%
% Inhibition (benzodiazepine receptor; concentration 9.5 × 10^-9 M): 27%
Compound: C/C1=C\CC(C)(C)/C=C/C[C@@]2(C)Oc3c(O)c(O)cc4c3[C@@H](OC4)[C@@H]2CC1 [Compound E]

Solubility [1]: Methanol, acetone, ethyl acetate
IC50 (benzodiazepine receptor): 40 nM
% Inhibition (benzodiazepine receptor; concentration 3 nM): 11%
% Inhibition (benzodiazepine receptor; concentration 9 nM): 35%
% Inhibition (benzodiazepine receptor; concentration 28 nM): 44%
% Inhibition (benzodiazepine receptor; concentration 93 nM): 65%
% Inhibition (benzodiazepine receptor; concentration 280 nM): 80%
% Inhibition (benzodiazepine receptor; concentration 930 nM): 92%
% Inhibition (benzodiazepine receptor; concentration 3 μM): 93%
% Inhibition (benzodiazepine receptor; concentration 9 μM): 99%
% Inhibition (benzodiazepine receptor; concentration 28 μM): 106%
% Inhibition (benzodiazepine receptor; concentration 93 μM): 107%
Compound: C/C1=C\CC(C)(C)/C=C/C[C@@]2(C)OC3=C(O)C(=O)[C@H]4CO[C@H]([C@@H]34)[C@@H]2CC1 [Compound A]

IC50 (benzodiazepine receptor): 10 nM
% Inhibition (benzodiazepine receptor; concentration 5 nM): 45%
% Inhibition (benzodiazepine receptor; concentration 10 nM): 45%
% Inhibition (benzodiazepine receptor; concentration 50 nM): 70%
% Inhibition (benzodiazepine receptor; concentration 100 nM): 65%
% Inhibition (benzodiazepine receptor; concentration 500 nM): 81%
% Inhibition (benzodiazepine receptor; concentration 1 μM): 86%
% Inhibition (benzodiazepine receptor; concentration 5 μM): 98%
% Inhibition (benzodiazepine receptor; concentration 10 μM): 100%
% Inhibition (benzodiazepine receptor; concentration 50 μM): 103%
% Inhibition (benzodiazepine receptor; concentration 100 μM): 92%
Compound: C/C1=C\CC(C)(C)/C=C/C[C@@]2(C)OC3=C(O)C(=O)[C@H]4CO[C@H]([C@@H]34)[C@@H]2CC1 [Compound D]

Solubility [1]: Methanol, acetone, ethyl acetate
IC50 (benzodiazepine receptor): 20000 nM
% Inhibition (benzodiazepine receptor; concentration 80 nM): 9%
% Inhibition (benzodiazepine receptor; concentration 240 nM): -3%
% Inhibition (benzodiazepine receptor; concentration 800 nM): 9%
% Inhibition (benzodiazepine receptor; concentration 2 μM): 12%
% Inhibition (benzodiazepine receptor; concentration 8 μM): 35%
% Inhibition (benzodiazepine receptor; concentration 24 μM): 54%
% Inhibition (benzodiazepine receptor; concentration 80 μM): 77%
% Inhibition (benzodiazepine receptor; concentration 242 μM): 88%
Compound: C/C1=C\CC(C)(C)/C=C/C[C@@]2(C)Oc3c4c(cc(O)c(=O)c3O)CO[C@H]4[C@@H]2CC1 [Compound C]

IC50 (benzodiazepine receptor): 5000 nM
% Inhibition (benzodiazepine receptor; concentration 18 nM): 21%
% Inhibition (benzodiazepine receptor; concentration 53 nM): 21%
% Inhibition (benzodiazepine receptor; concentration 177 nM): 36%
% Inhibition (benzodiazepine receptor; concentration 530 nM): 42%
% Inhibition (benzodiazepine receptor; concentration 2 μM): 53%
% Inhibition (benzodiazepine receptor; concentration 5 μM): 69%
% Inhibition (benzodiazepine receptor; concentration 18 μM): 82%
% Inhibition (benzodiazepine receptor; concentration 53 μM): 92%
% Inhibition (benzodiazepine receptor; concentration 177 μM): 78%
Compound: C/C1=C\CC(C)(C)/C=C/C[C@@]2(C)Oc3c4c(c(O)c(O)c(=O)c3O)CO[C@H]4[C@@H]2CC1 [Compound B]
Solubility [1]: Methanol, ethyl acetate, chloroform, acetone

Solubility [1]: methanol
IC50 (benzodiazepine receptor): 3000 nM
% Inhibition (benzodiazepine receptor; concentration 2.7 × 10^-4 M): 94%
% Inhibition (benzodiazepine receptor; concentration 2.7 × 10^-5 M): 77%
% Inhibition (benzodiazepine receptor; concentration 2.7 × 10^-6 M): 48%
% Inhibition (benzodiazepine receptor; concentration 2.7 × 10^-7 M): 33%
% Inhibition (benzodiazepine receptor; concentration 2.7 × 10^-8 M): 24%
% Inhibition (benzodiazepine receptor; concentration 9.0 × 10^-5 M): 89%
% Inhibition (benzodiazepine receptor; concentration 9.0 × 10^-6 M): 65%
% Inhibition (benzodiazepine receptor; concentration 9.0 × 10^-7 M): 41%
% Inhibition (benzodiazepine receptor; concentration 9.0 × 10^-8 M): 27%
% Inhibition (benzodiazepine receptor; concentration 9.0 × 10^-9 M): 15%
Compound: C/C1=C\CC(C)(C)/C=C/C[C@@]2(C)OC3=C4C(=CC(=O)C3=O)CO[C@H]4[C@@H]2CC1 [Compound F]
